Counter-ions that a name gives are not always drawn. Like-named read-outs stand apart in the source and are kept apart here. Values belong to the compound of their own block, whether it stands above or below them.
What was measured:
Aβ1-42 = target: T1, Aβ1-42 (Homo sapiens, UniProt P05067); test: Thioflavin T spectrofluorescence assay: inhibition of Aβ1-42 aggregation; type: biochemical
T1 construct: Aβ1-42 lyophilized powder (Bachem) was reconstituted in hexafluoroisopropanol (HFIP) to 1 mM; purchased Bachem
T1 sequence (P05067 672-713 limits assumed): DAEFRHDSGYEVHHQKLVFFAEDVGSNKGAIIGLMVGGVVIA
Description: The objective of this example was to evaluate the capacity of the compounds of the invention to inhibit the aggregation of (Aβ)1-42 peptide and to disaggregate pre-aggregated Aβ1-42 using a thioflavin T spectrofluorescence assay.
Aβ1-42 lyophilized powder (Bachem) was reconstituted in hexafluoroisopropanol (HFIP) to 1 mM. The peptide solution was sonicated for 15 min at room temperature, agitated overnight, and aliquots were placed into non-siliconized microcentrifuge tubes. The HFIP was then evaporated under a stream of argon. The resulting peptide film was dried under vacuum for 10 min, tightly sealed and stored at −80° C. until used.
Aβ1-42 peptide film was dissolved in DMSO to reach 400 μM. Assay solution in PBS was prepared in non-siliconized incubation tubes to reach the following concentrations: 330 μM small molecule, 33 μM Aβ1-42, 10 μM thioflavin T (ThT), and 12.8% DMSO. Therefore, the final molar ratio of small molecule to Aβ1-42 was 10:1. A positive control without a small molecule was prepared to measure maximum RFU. A negative control without Aβ1-42 was prepared for each small molecule. 3-aminopyrazole trimer (Trimer) was tested in all assays to ascertain reproducibility between independent experiments. The solutions were then incubated for 24 h at 37° C., and the spectrofluorescence (relative fluorescence units; RFU) read in six replicates in black 384-well assay plates (Perkin-Elmer) on a Perkin-Elmer FluoroCount spectrofluorometer. Inhibition of aggregation is expressed as mean % inhibition±1 standard deviation (SD) according to the following equation: […]

[1] = target: T2, Oregon Green labeled Aβ(1-42) (Homo sapiens, UniProt P05067); test: FCS-assay with 5 nM Oregon Green labeled Aβ-peptide (disaggregation of preformed aggregates); type: biochemical
T2 construct: DMSO-stock solutions of Oregon Green labeled Aβ(1-42) 1:1 with deionized water
T2 sequence (P05067 672-713 limits assumed): as above
Description: In order to analyse the disaggregating properties of the compounds, preformed aggregates were used, which were induced straight before the FCS-measurement by diluting low concentrated (500 nM) DMSO-stock solutions of Oregon Green labeled Aβ(1-42) 1:1 with deionized water. The final concentration of Oregon Green labeled Aβ-peptide was 5 nM in 1×PBS and 3% DMSO.
To improve the reproducibility of the measurements of the concentration dependencies all samples were prepared fourfold.

[2] = 10:1 small molecule to Aβ1-42 molar ratio
[3] = Table 4, 10:1 small molecule to Aβ1-42 molar ratio, 24 h at 37° C., mean ± SD of 2 independent experiments, read-out: % inhibition
[4] = read-out: Percentage of the “number of peaks” value compared to the control reaction without added ligand
[5] = read-out: Percentage of the “peaks × height“ value compared to the control reaction without added ligand
[6] = Table 3, 10:1 small molecule to Aβ1-42 molar ratio, 24 h at 37° C., mean ± SD of two independent experiments, read-out: % Inhibition

Compound: Cc1ccc(-c2cc(NCCNc3cc(-c4ccc(Cl)cc4)[nH]n3)n[nH]2)cc1 (as salt: hydrochloride) [Compound 1ae, N-(5-(4-Chlorophenyl)-1H-pyrazol-3-yl)-N′-(5-p-tolyl-1H-pyrazol-3-yl)ethane-1,2-diamine bishydrochloride]
melting point: 182 °C

Compound: Clc1ccc(-c2cc(NCCNc3cc(-c4cccs4)[nH]n3)n[nH]2)cc1 (as salt: hydrochloride) [Compound 1ah, N-(5-(4-Chlorophenyl)-1H-pyrazol-3-yl)-N′-(5-(thiophen-2-yl)-1H-pyrazol-3-yl)ethane-1,2-diamine bishydrochloride]
melting point: 139 °C

Compound: FC(F)(F)c1cccc2[nH]nc(NCCNc3n[nH]c4cccc(C(F)(F)F)c34)c12 (as salt: hydrochloride) [Compound 1ai, N,N′-bis(4-(Trifluoromethyl)-1H-indazol-3-yl)ethane-1,2-diamine bishydrochloride]
melting point: 222 °C

Compound: Fc1ccc(-c2cc(NCCNc3cc(-c4ccc(F)cc4)[nH]n3)n[nH]2)cc1 (as salt: hydrochloride) [Compound 1ak, N^1,N^2-bis(5-(4-Fluorophenyl)-1H-pyrazol-3-yl)ethane-1,2-diamine bishydrochloride]
melting point: 239 to 240 °C

inhibition at 330 µM (Aβ1-42; 24 h): 38.7 ± 5.2%
Compound: Cc1cc(NC(=O)C(=O)Nc2cc(C)[nH]n2)n[nH]1 [Ampox, reference compound]

Compound: Cc1cc(NCCNc2cc(C)[nH]n2)n[nH]1 [Compound 1a, N^1,N^2-bis(5-Methyl-1H-pyrazol-3-yl)ethane-1,2-diamine bishydrochloride]
inhibition at 330 µM (Aβ1-42; 24 h): 37.6 ± 0.7%

Compound: FC(F)(F)c1cccc2[nH]nc(NCCNc3n[nH]c4cccc(C(F)(F)F)c34)c12 [Compound 1ai, N,N′-bis(4-(Trifluoromethyl)-1H-indazol-3-yl)ethane-1,2-diamine bishydrochloride]
inhibition of Aβ1-42 aggregation, in words (Aβ1-42; [2]): strong inhibition of aggregation
inhibition at 330 µM (Aβ1-42; 24 h): 50.4 ± 8.4%

inhibition of Aβ1-42 aggregation, in words (Aβ1-42; [2]): strong inhibition of aggregation
inhibition at 330 µM (Aβ1-42; [3]): 79.1 ± 4.8%
remaining activity at 0.2 µM ([1]; 200 nM compound, 5 nM labeled Aβ-peptide, read-out: Percentage of the “number of peaks” value compared to the control reaction without added ligand): 57.4%
remaining activity at 0.2 µM ([1]; 200 nM compound, 5 nM labeled Aβ-peptide, read-out: Percentage of the “peaks × height“ value compared to the control reaction without added ligand): 61.9%
Compound: CN(C)c1ccc(-c2cc(NCCNc3cc(-c4ccc(N(C)C)cc4)[nH]n3)n[nH]2)cc1.Cl.Cl [Compound 1aj, N^1,N^2-bis(5-(4-(Dimethylamino)phenyl)-1H-pyrazol-3-yl)ethane-1,2-diamine bishydrochloride]

Compound: Fc1ccc(-c2cc(NCCNc3cc(-c4ccc(F)cc4)[nH]n3)n[nH]2)cc1 [Compound 1ak, N^1,N^2-bis(5-(4-Fluorophenyl)-1H-pyrazol-3-yl)ethane-1,2-diamine bishydrochloride]
inhibition of Aβ1-42 aggregation, in words (Aβ1-42; [2]): strong inhibition of aggregation
inhibition at 330 µM (Aβ1-42; 24 h): 74 ± 5.9%
remaining activity at 0.1 µM [1, 4]: 57.4%
remaining activity at 0.2 µM [1, 4]: 51%
remaining activity at 0.1 µM [1, 5]: 43.3%
remaining activity at 0.2 µM [1, 5]: 44.8%

Compound: c1ccc(-c2cc(NCCNc3cc(-c4ccccn4)[nH]n3)n[nH]2)nc1 [Compound 1al, N^1,N^2-bis(5-(Pyridin-2-yl)-1H-pyrazol-3-yl)ethane-1,2-diamine tetra-hydrochloride]
inhibition of Aβ1-42 aggregation, in words (Aβ1-42; [2]): strong inhibition of aggregation
inhibition at 330 µM (Aβ1-42; 24 h): 90.1 ± 4.7%
remaining activity at 0.2 µM [1, 4]: 57.9%
remaining activity at 0.2 µM [1, 5]: 48%

Compound: Cc1ccc(-c2cc(NCC(C)(C)CNc3cc(-c4ccc(C)cc4)[nH]n3)n[nH]2)cc1 [Compound 1an, dihydrochloride]
inhibition of Aβ1-42 aggregation, in words (Aβ1-42; [2]): strong inhibition of aggregation
inhibition at 330 µM (Aβ1-42; 24 h): 55.9 ± 7.4%

Compound: Cc1ccc(-c2cc(NCc3cccc(CNc4cc(-c5ccc(C)cc5)[nH]n4)c3)n[nH]2)cc1 [Compound 1ao, N,N′-(1,3-Phenylenebis(methylene))bis(5-p-tolyl-1H-pyrazol-3-amine) dihydrochloride]
inhibition at 330 µM (Aβ1-42; 24 h): 72.9 ± 0.7%

Compound: Cc1ccc(-c2cc(NCc3ccc(CNc4cc(-c5ccc(C)cc5)[nH]n4)cc3)n[nH]2)cc1 [Compound 1ap, N,N′-(1,4-Phenylenebis(methylene))bis(5-p-tolyl-1H-pyrazol-3-amine) dihydrochloride]
inhibition of Aβ1-42 aggregation, in words (Aβ1-42; [2]): strong inhibition of aggregation
inhibition at 330 µM (Aβ1-42; 24 h): 66.2 ± 1.6%

Compound: Cc1ccc(-c2cc(NCc3cccc(CNc4cc(-c5ccc(C)cc5)[nH]n4)n3)n[nH]2)cc1 [Compound 1aq, N,N′-(Pyridine-2,6-diylbis(methylene))bis(5-p-tolyl-1H-pyrazol-3-amine) trishydrochloride]
inhibition at 330 µM (Aβ1-42; 24 h): 82.9 ± 2.7%

inhibition at 330 µM (Aβ1-42; [6]): 9.7 ± 0.3%
Compound: c1cc(NCCNc2cc[nH]n2)n[nH]1 [Compound 1b, N^1N^2-bis(1H-Pyrazol-3-yl)ethane-1,2-diamine bishydrochloride]

Compound: Cc1[nH]nc(NCCNc2n[nH]c(C)c2-c2ccccc2)c1-c1ccccc1 [Compound 1c, N^1,N^2-bis(5-Methyl-4-phenyl-1H-pyrazol-3-yl)ethane-1,2-diamine bishydrochloride]
inhibition at 330 µM (Aβ1-42; 24 h): 52.7 ± 1.3%

inhibition of Aβ1-42 aggregation, in words (Aβ1-42; [2]): strong inhibition of aggregation
inhibition at 330 µM (Aβ1-42; [3]): 82.5 ± 5.8%
Compound: c1ccc(-c2cc(NCCNc3cc(-c4ccccc4)[nH]n3)n[nH]2)cc1 [Compound 1e, N^1,N^2-bis(5-Phenyl)-1H-pyrazol-3-yl)ethane-1,2-diamine bishydrochloride]

Compound: c1csc(-c2cc(NCCNc3cc(-c4cccs4)[nH]n3)n[nH]2)c1 [Compound 1h, N^1,N^2-bis(5-(2-Thienyl)-1H-pyrazol-3-yl)ethane-1,2-diamine bishydrochloride]
inhibition at 330 µM (Aβ1-42; 24 h): 69.9 ± 1.4%

Compound: c1c(NCCNc2cc(C3CC3)[nH]n2)n[nH]c1C1CC1 [Compound 1i, N^1,N^2-bis(5-Cyclopropyl-1H-pyrazol-3-yl)ethane-1,2-diamine bishydrochloride]
inhibition at 330 µM (Aβ1-42; 24 h): 53.6 ± 27%

Compound: CC(C)(C)c1cc(NCCNc2cc(C(C)(C)C)[nH]n2)n[nH]1 [Compound 1j, N^1,N^2-bis(5-tert-Butyl-1H-pyrazol-3-yl)ethane-1,2-diamine bishydrochloride]
inhibition at 330 µM (Aβ1-42; 24 h): 11.5 ± 2.9%

inhibition at 330 µM (Aβ1-42; Table 5, 10:1 small molecule to Aβ1-42 molar ratio, 24 h at 37° C., mean ± SD of two independent experiments, read-out: % inhibition): 40.4 ± 13%
Compound: Cc1cc(NCCNc2n[nH]c(C)c2-c2ccc(Cl)cc2)n[nH]1 [Compound 1k, N,N′-(4-(4-Chlorophenyl)-5-methyl-1H-pyrazol-3-yl-N′-(5-methyl-1H-pyrazol-3-yl)ethane-1,2-diaminebishydrochloride]

Compound: c1ccc(Cc2cc(NCCNc3cc(Cc4ccccc4)[nH]n3)n[nH]2)cc1 [Compound 1l, N^1,N^2-bis(5-Benzyl-1H-pyrazol-3-yl)ethane-1,2-diamine dihydrochloride]
inhibition at 330 µM (Aβ1-42; 24 h): 57.5 ± 7.6%

Compound: c1coc(-c2cc(NCCNc3cc(-c4ccco4)[nH]n3)n[nH]2)c1 [Compound 1m, N^1,N^2-bis(5-(2-Furyl)-1H-pyrazol-3-yl)ethane-1,2-diamine bishydrochloride]
inhibition of Aβ1-42 aggregation, in words (Aβ1-42; [2]): strong inhibition of aggregation
inhibition at 330 µM (Aβ1-42; 24 h): 52.9 ± 2.7%

Compound: c1ccc(Cc2c[nH]nc2NCCNc2n[nH]cc2Cc2ccccc2)cc1 [Compound 1q, N^1,N^2-bis(4-Benzyl-1H-pyrazol-3-yl)ethane-1,2-diamine dihydrochloride]
inhibition at 330 µM (Aβ1-42; 24 h): 59.2 ± 4.9%

Compound: c1csc(-c2c[nH]nc2NCCNc2n[nH]cc2-c2cccs2)c1 [Compound 1r, N^1,N^2-bis(4-(Thiophen-2-yl)-1H-pyrazol-3-yl)ethane-1,2-diamine bishydrochloride]
inhibition at 330 µM (Aβ1-42; 24 h): 49.5 ± 0.8%

Compound: Clc1ccc(-c2c[nH]nc2NCCNc2n[nH]cc2-c2ccc(Cl)cc2)cc1 [Compound 1s, N^1,N^2-bis(4-(4-Chlorophenyl)-1H-pyrazol-3-yl)ethane-1,2-diamine bishydrochloride]
inhibition at 330 µM (Aβ1-42; 24 h): 66.6 ± 4.1%

Compound: COc1ccc(-c2c(NCCNc3n[nH]c(C)c3-c3ccc(OC)cc3)n[nH]c2C)cc1 [Compound 1t, N^1,N^2-bis(5-Methyl-4-methoxyphenyl)-1H-pyrazol-3-yl)ethane-1,2-diamine dihydrochloride]
inhibition at 330 µM (Aβ1-42; 24 h): 31.4 ± 0.5%

Compound: c1[nH]nc(NCCNc2n[nH]cc2C2CC2)c1C1CC1 [Compound 1v, N^1,N^2-bis(4-Cyclopropyl-1H-pyrazol-3-yl)ethane-1,2-diamine bishydrochloride]
inhibition at 330 µM (Aβ1-42; 24 h): 15.3 ± 2.9%

inhibition at 330 µM (Aβ1-42; [6]): 7.3 ± 10.4%
Compound: Cc1cc(NCC(=O)Nc2cc(C)[nH]n2)n[nH]1 [Compound 1w, N-(5-Methyl-1H-pyrazol-3-yl)-2-(5-methyl-1H-pyrazol-3-ylamino)acetamide]

From US20100144793A1, “NOVEL COMPOUNDS FOR THE TREATMENT OF DISEASES ASSOCIATED WITH AMYLOID OR AMYLOID-LIKE PROTEINS” (AC IMMUNE SA, priority 2006, published 2010)
